≈ marks a conversion by molar mass, not a printed value. Where two headings read alike, the source gives them in different places.
Key:
[1] = Microsomal stability (rat); format: in vitro ADME; conditions: rat microsomes
[2] = tested on: Asexual parasites of P. falciparum strain 3D7; assay: In vitro drug activity on asexual parasites (SYBR Green assay); format: cell-based; conditions: Plasmodium falciparum, P. falciparum 3D7 asexual stage, 72 h, read-out: Asexual EC50
Method in brief: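 Growth was measured by SYBR Green I fluorescence (excitation 490 nm, emission 520 nm) after freeze-thaw lysis and 30 min staining at room temperature. Parasites (0.5% parasitemia, 2% hematocrit) had been incubated 72 h with compound, DMSO below 0.5%. Conditions were run in duplicate with no-drug and RBC-alone controls.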

Solubility pH 7.4 = format: physicochemical; conditions: aqueous buffer
PAMPA permeability = format: in vitro ADME
[3] = Table 1, read-out: Microsomal Stability (rat) T1/2
[4] = Table 3, read-out: Microsomal Stability (rat) T1/2
[5] = Table 2, read-out: Microsomal Stability (rat) T1/2

| Structure (SMILES) | half-life [1, 3] | EC50 ([2]; Table 1) | solubility (Solubility pH 7.4; Table 1) | Papp (PAMPA permeability; Table 1) | also measured |
| --- | --- | --- | --- | --- | --- |
| Cn1c(=N)n(-c2cccc(N3CCNCC3)c2)c2c3cc(-c4ccc(Cl)cc4)ccc3ncc21 [Compound 76, 8-(4-chlorophenyl)-3-methyl-1-(3-(piperazin-1-yl)phenyl)-1,3-dihydro-2H-imidazo[4,5-c]quinolin-2-imine] | > 30 min | 802 nM | > 46 µg/mL | 28.3 ×10⁻⁶ cm/s |  |
| Cc1cccc(-c2ccc3ncc4c(c3c2)n(-c2cc(C#N)ccc2C)c(=N)n4C)c1 [Compound 36, 3-(2-imino-3-methyl-8-(m-tolyl)-2,3-dihydro-1H-imidazo[4,5-c]quinolin-1-yl)-4-methylbenzonitrile] | 27 min | 158 nM | > 40 µg/mL | 1150 ×10⁻⁶ cm/s |  |
| Cn1c(=N)n(-c2ccc(N3CCOCC3)c(C#N)c2)c2c3cc(-c4ccc(Cl)cc4)ccc3ncc21 [Compound 51, 5-(8-(4-chlorophenyl)-2-imino-3-methyl-2,3-dihydro-1H-imidazo[4,5-c]quinolin-1-yl)-2-morpholinobenzonitrile] | > 30 min | 186 nM | < 1 µg/mL | 81.1 ×10⁻⁶ cm/s |  |
| Cn1c(=N)n(-c2cncnc2)c2c3cc(-c4ccc(C(F)(F)F)nc4)ccc3ncc21 |  |  |  |  | half-life [1, 4]: > 30 min; EC50 ([2]; Table 3): 560 nM; solubility (Solubility pH 7.4; Table 3): 31 µg/mL (≈ 73.6 µM); Papp (PAMPA permeability; Table 3): 541 ×10⁻⁶ cm/s |
| COc1ccc(-c2ccc3ncc4c(c3c2)n(-c2cc(C#N)ccc2C)c(=N)n4C)cc1OC [Compound 41, 3-(8-(3,4-dimethoxyphenyl)-2-imino-3-methyl-2,3-dihydro-1H-imidazo[4,5-c]quinolin-1-yl)-4-methylbenzonitrile] | > 30 min | 46.2 nM | > 44 µg/mL | 988 ×10⁻⁶ cm/s |  |
| COC(=O)/N=c1\n(C)c2cnc3ccc(-c4ccc(Cl)cc4)cc3c2n1-c1cc(C#N)ccc1C [Compound 87, methyl (E)-(8-(4-chlorophenyl)-1-(5-cyano-2-methylphenyl)-3-methyl-1,3-dihydro-2H-imidazo[4,5-c]quinolin-2-ylidene)carbamate] | > 30 min | 57.5 nM | < 1 µg/mL | 95.6 ×10⁻⁶ cm/s |  |
| COc1ccc(-c2ccc3ncc4c(c3c2)n(-c2cncnc2)c(=N)n4C)cn1 |  |  |  |  | half-life [1, 4]: > 30 min; EC50 ([2]; Table 3): 1050 nM; solubility (Solubility pH 7.4; Table 3): 34.5 µg/mL (≈ 90 µM); Papp (PAMPA permeability; Table 3): 684 ×10⁻⁶ cm/s |
| Cn1c(=N)n(-c2cncnc2)c2c3cc(-c4ccc(Cl)cc4)ccc3ncc21 |  |  |  |  | half-life [1, 4]: > 30 min; EC50 ([2]; Table 3): 220 nM; solubility (Solubility pH 7.4; Table 3): 16.3 µg/mL (≈ 42.1 µM); Papp (PAMPA permeability; Table 3): 397 ×10⁻⁶ cm/s |
| Cc1ncncc1-n1c(=N)n(C)c2cnc3ccc(-c4ccc(Cl)cc4)cc3c21 |  |  |  |  | half-life [1, 4]: > 30 min; EC50 ([2]; Table 3): 721 nM; solubility (Solubility pH 7.4; Table 3): 24.7 µg/mL (≈ 61.6 µM); Papp (PAMPA permeability; Table 3): 1290 ×10⁻⁶ cm/s |
| Cc1ccc(C#N)cc1-n1c(=N)n(C)c2cnc3ccc(C#Cc4ccc(Cl)cc4)cc3c21 [Compound 155, 3-(8-((4-chlorophenyl)ethynyl)-2-imino-3-methyl-2,3-dihydro-1H-imidazo[4,5-c]quinolin-1-yl)-4-methylbenzonitrile] | > 30 min | 8980 nM | < 1 µg/mL | 916 ×10⁻⁶ cm/s |  |
| Cn1c(=N)n(-c2cccc(Cl)c2)c2c3cc(-c4ccc(Cl)cc4)ccc3ncc21 [Compound 28, 1-(3-chlorophenyl)-8-(4-chlorophenyl)-3-methyl-1,3-dihydro-2H-imidazo[4,5-c]quinolin-2-imine] | > 30 min | 186 nM | < 1 µg/mL | 226 ×10⁻⁶ cm/s |  |
| Cc1ccc(C#N)cc1-n1c(=N)n(C)c2cnc3ccc(-c4ccc(Cl)c(Cl)c4)cc3c21 [Compound 42, 3-(8-(3,4-dichlorophenyl)-2-imino-3-methyl-2,3-dihydro-1H-imidazo[4,5-c]quinolin-1-yl)-4-methylbenzonitrile] | > 30 min | 574 nM | < 1 µg/mL | 1650 ×10⁻⁶ cm/s |  |
| COc1ccc(C#N)cc1-n1c(=N)n(C)c2cnc3ccc(-c4ccc(Cl)cc4)cc3c21 [Compound 53, 3-(8-(4-chlorophenyl)-2-imino-3-methyl-2,3-dihydro-1H-imidazo[4,5-c]quinolin-1-yl)-4-methoxybenzonitrile] | > 30 min | 120 nM | 12.2 µg/mL (≈ 27.7 µM) | 850 ×10⁻⁶ cm/s |  |
| CN(C)CCN1CCN(C(=O)c2ccc(-n3/c(=N\C#N)ccc4cnc5ccc(-c6ccc(Cl)cc6)cc5c43)cc2)CC1 |  |  |  |  | half-life [1, 5]: > 30 min; EC50 ([2]; Table 2): 45.4 nM; solubility (Solubility pH 7.4; Table 2): 3.2 µg/mL (≈ 5.42 µM); Papp (PAMPA permeability; Table 2): 8.8 ×10⁻⁶ cm/s |
| Cc1cc(N2CCN(C)CC2)c(C#N)cc1-n1c(=N)n(C)c2cnc3ccc(-c4ccc(Cl)cc4)cc3c21 [Compound 108, 5-(8-(4-chlorophenyl)-2-imino-3-methyl-2,3-dihydro-1H-imidazo[4,5-c]quinolin-1-yl)-4-methyl-2-(4-methylpiperazin-1-yl)benzonitrile] | > 30 min | 464 nM | 37.6 µg/mL (≈ 72 µM) | 255 ×10⁻⁶ cm/s |  |
| Cn1c(=N)n(-c2cccc(C(F)(F)F)c2)c2c3cc(-c4ccc(Cl)cc4)ccc3ncc21 [Compound 26, 8-(4-chlorophenyl)-3-methyl-1-(3-(trifluoromethyl)phenyl)-1,3-dihydro-2H-imidazo[4,5-c]quinolin-2-imine] | > 30 min | 529 nM | < 1 µg/mL | 1670 ×10⁻⁶ cm/s |  |
| N=c1ccc2cnc3ccc(-c4ccc(N)nc4)cc3c2n1-c1cccc(C(F)(F)F)c1 |  |  |  |  | half-life [1, 5]: > 30 min; EC50 ([2]; Table 2): 21.8 nM; solubility (Solubility pH 7.4; Table 2): > 64 µg/mL; Papp (PAMPA permeability; Table 2): 228 ×10⁻⁶ cm/s |
| Cn1c(=N)n(-c2ccc(N3CCNCC3)c(C#N)c2)c2c3cc(-c4ccc(Cl)cc4)ccc3ncc21 [Compound 49, 5-(8-(4-chlorophenyl)-2-imino-3-methyl-2,3-dihydro-1H-imidazo[4,5-c]quinolin-1-yl)-2-(piperazin-1-yl)benzonitrile] | > 30 min | 58.2 nM | 1 µg/mL (≈ 2.02 µM) | 4.9 ×10⁻⁶ cm/s |  |
| CC(=O)N1CCN(c2cc(C)c(-n3c(=N)n(C)c4cnc5ccc(-c6ccc(Cl)cc6)cc5c43)cc2C#N)CC1 [Compound 109, 2-(4-acetylpiperazin-1-yl)-5-(8-(4-chlorophenyl)-2-imino-3-methyl-2,3-dihydro-1H-imidazo[4,5-c]quinolin-1-yl)-4-methylbenzonitrile] | > 30 min | 4.33 nM | < 1 µg/mL | 838 ×10⁻⁶ cm/s |  |
| Cc1ccc(C#N)cc1-n1c(=N)n(C)c2cnc3ccc(-c4ccc(F)c(F)c4)cc3c21 [Compound 43, 3-(8-(3,4-difluorophenyl)-2-imino-3-methyl-2,3-dihydro-1H-imidazo[4,5-c]quinolin-1-yl)-4-methylbenzonitrile] | > 30 min | 118 nM | 8.3 µg/mL (≈ 19.5 µM) | 837 ×10⁻⁶ cm/s |  |
| Cc1ncncc1-n1c(=N)n(C)c2cnc3ccc(-c4ccc(F)cc4)cc3c21 |  |  |  |  | half-life [1, 4]: > 30 min; EC50 ([2]; Table 3): 538 nM; solubility (Solubility pH 7.4; Table 3): 6.2 µg/mL (≈ 16.1 µM); Papp (PAMPA permeability; Table 3): 1180 ×10⁻⁶ cm/s |
| Cn1c(=N)n(-c2cccc(C#N)c2)c2c3cc(-c4ccc(Cl)cc4)ccc3ncc21 [Compound 11, 3-(8-(4-chlorophenyl)-2-imino-3-methyl-2,3-dihydro-1H-imidazo[4,5-c]quinolin-1-yl)benzonitrile] | > 30 min | 48.2 nM | 3.1 µg/mL (≈ 7.56 µM) | 1000 ×10⁻⁶ cm/s |  |
| Cc1ccc(C(F)(F)F)cc1-n1c(=N)n(C)c2cnc3ccc(-c4ccc(Cl)cc4)cc3c21 [Compound 27, 8-(4-chlorophenyl)-3-methyl-1-(2-methyl-5-(trifluoromethyl)phenyl)-1,3-dihydro-2H-imidazo[4,5-c]quinolin-2-imine] | > 30 min | 138 nM | < 1 µg/mL | 1610 ×10⁻⁶ cm/s |  |

Reference: patent publication US20210188843A1, “QUINOLINE COMPOUNDS AND THEIR PREPARATION AND USE AS ANTIMALARIAL AGENTS” (The United States of America,as represented by the …, priority 2018, published 2021)
